In assay [1] the target is T1, 5-LO (Rattus norvegicus, UniProt P12527).
T1 construct: liberation of LTB4 induced by zymosan within an air pouch generated within the subcutaneous tissue of the back of male rats; from tissue; host or cells: live male rats, zymosan-inflamed subcutaneous air pouch (endogenous enzyme)
T1 sequence (P12527 1-673): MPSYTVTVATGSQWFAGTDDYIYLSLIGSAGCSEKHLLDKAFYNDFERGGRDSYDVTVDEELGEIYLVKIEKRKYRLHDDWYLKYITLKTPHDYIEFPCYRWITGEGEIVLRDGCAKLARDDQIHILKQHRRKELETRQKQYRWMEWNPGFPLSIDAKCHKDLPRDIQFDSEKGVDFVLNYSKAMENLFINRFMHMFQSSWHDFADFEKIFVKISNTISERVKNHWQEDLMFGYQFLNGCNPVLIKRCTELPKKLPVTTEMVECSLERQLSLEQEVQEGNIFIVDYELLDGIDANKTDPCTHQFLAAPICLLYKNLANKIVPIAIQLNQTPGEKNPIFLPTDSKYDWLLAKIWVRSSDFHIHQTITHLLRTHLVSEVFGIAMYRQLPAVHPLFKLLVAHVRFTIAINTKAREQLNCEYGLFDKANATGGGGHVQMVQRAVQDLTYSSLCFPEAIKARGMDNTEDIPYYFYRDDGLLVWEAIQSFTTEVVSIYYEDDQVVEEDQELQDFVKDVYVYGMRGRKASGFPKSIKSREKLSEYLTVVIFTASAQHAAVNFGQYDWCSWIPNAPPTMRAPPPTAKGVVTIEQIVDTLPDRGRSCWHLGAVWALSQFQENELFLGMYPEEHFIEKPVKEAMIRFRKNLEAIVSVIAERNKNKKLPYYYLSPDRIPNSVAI
Kind of assay: test c) in vivo zymosan-induced LTB4 liberation in rat air pouch. Particulars: oral, male rats, 3 hours. On the procedure: (§1) As stated previously, the benzodioxole derivatives of the formula I are inhibitors of the enzyme 5-LO.
c) An in vivo system involving measuring the effects of a test compound administered orally against the liberation of LTB4 induced by zymosan within an air pouch generated within the subcutaneous tissue of the back of male rats. The rats are anaesthetised and air pouches are formed by the injection of sterile air (20 ml). A further injection of air (10 ml) is similarly given after 3 days. At 6 days after the initial air injection the test compound is administered (usually orally as the suspension produced when a solution of the test compound in dimethylsulphoxide is added to hydroxypropylmethylcellulose), followed by the intrapouch injection of zymosan (1 ml of a 1% suspension in physiological saline). After 3 hours the rats are killed, the air pouches are lavaged with physiological saline, and the specific radioimmunoassay described above is used to assay LTB4 in the washings. This test provides an indication of inhibitory effects against 5-LO in an inflammatory milieu.

Assay [2] concerns the target T2, 5-LO (Homo sapiens, UniProt P09917).
T2 construct: incubating a test compound with heparinised human blood, prior to challenge with the calcium ionophore A23187; from tissue; host or cells: heparinised human blood (endogenous enzyme of the blood cells)
T2 sequence (P09917 1-674): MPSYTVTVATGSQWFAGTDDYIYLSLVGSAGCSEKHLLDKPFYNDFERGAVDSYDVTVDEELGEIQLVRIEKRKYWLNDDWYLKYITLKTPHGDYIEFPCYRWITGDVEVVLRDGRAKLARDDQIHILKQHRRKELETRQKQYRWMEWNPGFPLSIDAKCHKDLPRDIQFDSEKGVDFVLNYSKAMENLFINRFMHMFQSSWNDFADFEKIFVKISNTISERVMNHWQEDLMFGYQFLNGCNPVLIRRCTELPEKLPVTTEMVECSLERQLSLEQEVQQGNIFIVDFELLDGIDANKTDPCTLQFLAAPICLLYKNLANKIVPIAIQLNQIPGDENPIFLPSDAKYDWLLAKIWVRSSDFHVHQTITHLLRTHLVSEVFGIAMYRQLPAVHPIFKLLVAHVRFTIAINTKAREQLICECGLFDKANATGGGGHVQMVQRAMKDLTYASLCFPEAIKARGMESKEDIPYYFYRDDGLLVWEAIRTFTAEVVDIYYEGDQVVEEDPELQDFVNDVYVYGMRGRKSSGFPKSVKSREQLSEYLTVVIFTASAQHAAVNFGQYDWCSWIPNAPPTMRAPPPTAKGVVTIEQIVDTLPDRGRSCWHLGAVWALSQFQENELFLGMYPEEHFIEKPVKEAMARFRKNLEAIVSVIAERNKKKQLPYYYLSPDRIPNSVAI
Kind of assay: test a) in vitro heparinised human blood, calcium ionophore A23187 challenge, LTB4 radioimmunoassay. The class given is cell-based. On the procedure: as §1
a) An in vitro assay system involving incubating a test compound with heparinised human blood, prior to challenge with the calcium ionophore A23187 and the indirectly measuring the inhibitory effects on 5-LO by assaying the amount of LTB4 using specific radioimmunoassays described by Carey and Forder (F. Carey and R.A. Forder, Prostaglandins Leukotrienes Med., 1986, 22, 57; Prostaglandins, 1984, 28, 666; Brit. J. Pharmacol. 1985, 84, 34P) which involve the use of a protein-LTB4 conjugate produced using the procedure of Young et alia (Prostaglandins, 1983, 26(4), 605-613). The effects of a test compound on the enzyme cyclooxygenase (which is involved in the alternative metabolic pathway for arachidonic acid and gives rise to prostaglandins, thromboxanes and related metabolites) may be measured at the same time using the specific radioimmunoassay for thromboxane B2 (T×B2) described by Carey and Forder (see above). This test provides an indication of the effects of a test compound against 5-LO and also cyclooxygenase in the presence of blood cells and proteins. It permits the selectivity of the inhibitory effect on 5-LO or cyclooxygenase to be assessed.

Each structure is given as a SMILES string.

For `COC1(c2ccc3c(c2)OC(c2ccc4c(ccc(=O)n4C)c2)O3)CCOCC1` (centres unmarked) [5-(4-methoxytetrahydropyran-4-yl)-2-(1-methyl-2-oxo-1,2-dihydroquinolin-6-yl)benzo-1,3-dioxole], the ED50 (commonly the midpoint of the dose-response relation) in assay [1] was below 0.5 mg/kg. In assay [2], the IC50 (in general, the concentration that inhibits the measured activity by half) worked out at 380 nM.

For the origin of these results see patent US5232930A, “2-heteroaryl-substituted benzodioxoic having 5-lipoxygenase inhibitory activity” (Imperial Chemical Industries PLC, priority 1991, dated 1993).
